Measured values taken from article PMC3376194 (Pharmacogenetics and Genomics, 2012).
“And” between values parts separate entries of the source, which are not always exact repeats. Equal values may be shown once. Read-outs that look alike come from different tables or passages of the source.

How the values were obtained:
[1] = system: PGHS-1; conditions: cited from earlier work
[2] = biological target: T1, wildtype human PGHS-1 (Homo sapiens, UniProt P23219); test: Reversible COX inhibition by NS-398, substrate dependence of COX activity; format: biochemical; conditions: double reciprocal plot
T1 sequence (P23219 24-599): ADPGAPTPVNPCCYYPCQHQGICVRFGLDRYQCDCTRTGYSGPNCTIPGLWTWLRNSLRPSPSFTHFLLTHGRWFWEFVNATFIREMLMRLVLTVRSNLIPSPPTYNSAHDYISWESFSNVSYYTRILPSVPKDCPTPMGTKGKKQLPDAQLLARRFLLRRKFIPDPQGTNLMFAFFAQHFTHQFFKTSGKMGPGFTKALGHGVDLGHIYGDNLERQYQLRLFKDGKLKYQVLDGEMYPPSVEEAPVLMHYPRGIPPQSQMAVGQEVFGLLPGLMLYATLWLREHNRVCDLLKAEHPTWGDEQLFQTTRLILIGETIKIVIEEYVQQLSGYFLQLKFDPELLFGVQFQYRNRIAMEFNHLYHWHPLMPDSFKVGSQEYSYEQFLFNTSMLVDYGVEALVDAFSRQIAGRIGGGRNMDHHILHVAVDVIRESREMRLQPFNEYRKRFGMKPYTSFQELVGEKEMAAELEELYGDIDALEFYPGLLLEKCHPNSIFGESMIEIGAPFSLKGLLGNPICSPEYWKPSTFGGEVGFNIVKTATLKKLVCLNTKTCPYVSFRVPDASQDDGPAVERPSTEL

[3] = biological target: T2, R108Q variant of human PGHS-1 (Homo sapiens, UniProt P23219, R108Q); test: COX kinetic parameters, oxygen uptake vs arachidonate; format: biochemical
T2 sequence (P23219 24-599 R108Q): as the sequence (P23219 24-599) above, with R85Q counted along it

[4] = biological target: T3, PGHS-1 V481I variant (Homo sapiens, UniProt P23219, V481I); test: as above; format: biochemical; conditions: read-out: COX Km (μM arachidonate), 0.025% Tween 20, 37 °C
T3 sequence (P23219 24-599 V481I): as the sequence (P23219 24-599) above, with V458I counted along it

[5] = biological target: T1, wildtype human PGHS-1; test: as above; format: biochemical; conditions: read-out: COX Km (μM arachidonate), WT, 37 °C, 100 μM HOOH
[6] = biological target: T4, PGHS-1 L237M variant (Homo sapiens, UniProt P23219, L237M); test: as above; format: biochemical; conditions: read-out: COX Km (μM arachidonate), 0.025% Tween 20, 37 °C
T4 sequence (P23219 24-599 L237M): as the sequence (P23219 24-599) above, with L214M counted along it

[7] = biological target: T2, R108Q variant of human PGHS-1; test: Analysis of Ki and k2 values for aspirin; format: biochemical; conditions: 20 °C, aspirin potassium salt
[8] = biological target: T2, R108Q variant of human PGHS-1; test: Timed preincubation with aspirin, decay of surviving COX activity; format: biochemical
[9] = biological target: PGHS-1 R53H variant (Homo sapiens, UniProt P23219, R53H); test: as above; format: biochemical; conditions: 37 °C, preincubation with 0.4-5.3 mM aspirin, average ± SD
PGHS-1 R53H variant, sequence (P23219 24-599 R53H): as the sequence (P23219 24-599) above, with R30H counted along it

[10] = system: ovine PGHS-1; conditions: cited from earlier work
[11] = biological target: T4, PGHS-1 L237M variant; test: Timed preincubation with aspirin, decay of surviving COX activity; format: biochemical; conditions: 37 °C, preincubation with 0.4-5.3 mM aspirin, average ± SD
[12] = hydrolysis in blood; cited from earlier work
[13] = system: PGHS-1; conditions: in blood ex vivo; cited from earlier work
[14] = ingestion of 500-650 mg aspirin; cited from earlier work
[15] = biological target: T3, PGHS-1 V481I variant; test: Timed preincubation with aspirin, decay of surviving COX activity; format: biochemical; conditions: 37 °C, preincubation with 0.4-5.3 mM aspirin, average ± SD
[16] = biological target: T1, wildtype human PGHS-1; test: as above; format: biochemical; conditions: WT; 37 °C; preincubation with 0.4-5.3 mM aspirin; average ± SD
[17] = system: COX-1; conditions: cited from earlier work

CS(=O)(=O)Nc1ccc([N+](=O)[O-])cc1OC1CCCCC1 [NS-398]
Antagonism of PGHS-1 inactivation by aspirin [1]: potent antagonist
Effect on COX catalysis ([1]; even at low arachidonate levels): lack effect on COX catalysis
Type of COX inhibition [2]: reversible, competitive inhibitor

CCCCC/C=C\C/C=C\C/C=C\C/C=C\CCCC(=O)O [arachidonate]
Elevated arachidonate Km compared to wildtype [3]: 1.9 fold
Km value above the wildtype value ([3]; 0.165% Tween 20): 50%
Km ([3]; read-out: COX Km (μM arachidonate), 0.025% Tween 20, 37 °C): 2.8 ± 0.4 µM
Km ([3]; read-out: COX Km (μM arachidonate), 0.165% Tween 20, 37 °C): 29.7 ± 3.3 µM
Increase in Km value vs wildtype ([3]; standard conditions): 86%
Km [4]: 1.8 ± 0.2 µM
Km ([5]; 0.025% Tween 20): 1.5 ± 0.4 µM
Km ([5]; 0.165% Tween 20): 19.8 ± 3.7 µM
Km [6]: 1.8 ± 0.3 µM

CC(=O)Oc1ccccc1C(=O)O [aspirin, acetylsalicylic acid]
Decrease in k2 (rate constant for acetyl group transfer) vs wildtype [7]: 30%
Increase in Ki for aspirin vs wildtype [7]: 70%
k2/Ki as percent of that for wildtype [7]: 42%
Lower aspirin reactivity compared to wildtype ([8]; R108Q vs wildtype): 60%
k2'/aspirin (≈ k2/Ki) as percent of the wildtype value ([8]; R108Q, 37 °C): 40%
Aspirin reactivity (relative), k2'/[aspirin] normalized to wildtype value ([8]; R108Q, 37 °C, preincubation with 0.4-5.3 mM aspirin, average ± SD): 0.40 ± 0.05 (n = 7) p = 0.0001
Aspirin reactivity (relative), k2'/[aspirin] normalized to wildtype value [9]: 0.91 ± 0.07 (n = 9) p = 0.042
Aspirin reactivity ([10]; ovine PGHS-1, 30°C): 0.3 mM⁻¹ min⁻¹
Ki ([10]; read-out: Ki for aspirin, PGHS-1 (ovine)): ~20 mM and 14 to 20 mM
Aspirin reactivity (relative), k2'/[aspirin] normalized to wildtype value [11]: 0.86 ± 0.05 (n = 9) p = 0.001
t1/2 of aspirin in blood [12]: ~ 15 min
IC50 [13]: 0.002 mM
Peak plasma aspirin level [14]: 30 to 80 µM
Time of plasma aspirin peak [14]: ~ 30 min
Aspirin reactivity (relative), k2'/[aspirin] normalized to wildtype value [15]: 0.82 ± 0.10 (n = 9) p = 0.001
Aspirin reactivity (relative), k2'/[aspirin] normalized to wildtype value [16]: 1.00 ± 0.10 (n = 9)

O=C(O)c1ccccc1O [salicylic acid]
COX-1 inhibition [17]: negligible COX-1 inhibitor
